≈ marks a conversion by molar mass, not a printed value.
Columns and labels:
E. coli strains [1] = assay: Imipenem MIC assay, microbroth dilution (CLSI); assay type: cell-based; conditions: Escherichia coli
Procedure: (§1) Imipenem MIC Assay was performed by microbroth dilution method according to the CLSI (Clinical and Laboratory Standards Institute) standard.

[2] = system: Klebsiella oxytoca strains; assay: Imipenem MIC assay, microbroth dilution (CLSI); assay type: cell-based
Procedure: as §1

[3] = system: Klebsiella pneumoniae strains; assay: Imipenem MIC assay, microbroth dilution (CLSI); assay type: cell-based; conditions: for MIC: Klebsiella pneumoniae
Procedure: as §1
(§2) Imipenem MIC Assay were performed by microbroth dilution method according to the CLSI (Clinical and Laboratory Standards Institute) standard.

[4] = system: Pseudomonas aeruginosa (PSEAER) strains; assay: Imipenem MIC assay, microbroth dilution (CLSI); assay type: cell-based; conditions: PSEAER strain 6 of Table 16 (MBL)
Procedure: as §2

E. coli strains [5] = assay: Lysis testing on Phoenix panel, nitrocefin hydrolysis rate; assay type: cell-based; set-up: unit not given here; conditions: without vs with lysis reagent
Procedure: (§3) Stock solutions with nitrocefin, trehalose, and/or reagents used to lyse the bacterial cells in pH6 MES buffer were prepared and dispensed into wells on the bottom part of Phoenix™ panel (BD, USA), with one stock solution in one well. Panels were then dried in an oven for approximately 30 min at approximately 70° C. The top part of Phoenix panel was then attached to the bottom part forming a panel system ready for inoculation. The concentrations of reagents after rehydration following Phoenix panel inoculation were 3 mg/ml lysozyme, 1 mM EDTA, and 1% trehalose in 0.1M pH6 MES buffer.
(§4) Representative strains of bacteria, such as E. coli and Klebsiella pneumoniae, were each streaked on a Trypticase™ Soy Agar with 5% Sheep Blood agar plate (BD, USA) and the plates were incubated at 35° C. for 18 hours. Afterwards, colonies from pure culture on each plate were inoculated into BD Phoenix ID broth (BD, USA) and adjusted to a desired turbidity of approximately 0.5 MacFarland. The bacterial cell suspension was then poured into the ID side of the Phoenix panels that were specifically made for cell lysis testing. Once inoculated, the panel was loaded into Phoenix instrument, where nitrocefin hydrolysis rate was monitored by colorimetric signals changes every 20 minutes for 16 hours.

[6] = system: Klebsiella pneumoniae strains; assay: as above; assay type: cell-based; set-up: unit not given here; conditions: without vs with lysis reagent
Procedure: as §3, §4

ESBLs = assay: Beta-lactamase inhibition at certain concentrations; assay type: biochemical
[7] = system: original-spectrum beta-lactamases (OSBLs); assay: as above; assay type: biochemical
class A beta-lactamases = assay: as above; assay type: biochemical
class C beta-lactamases = assay: as above; assay type: biochemical

Work on `C[C@@H](O)[C@H]1C(=O)N2C(C(=O)O)=C(SCCN=CN)C[C@H]12` [Imipenem] yielded an MIC (E. coli strains [1]; E. coli strain 1 of Table 8 (C-chromo)) of no more than 2 µg/mL, an MIC (E. coli strains [1]; E. coli strain 3 of Table 8 (Carb (KPC))) of 16 µg/mL (≈ 53.4 µM) and an MIC (E. coli strains [1]; E. coli strain 4 of Table 8 (ESBL, C-chromo)) of no more than 2 µg/mL. It also gave an MIC (E. coli strains [1]; E. coli strain 5 of Table 8 (IRT, C-chromo)) of no more than 2 µg/mL, an MIC (E. coli strains [1]; E. coli strain 6 of Table 8 (OSBL, Carb)) of 8 µg/mL (≈ 26.7 µM) and an MIC (E. coli strains [1]; E. coli strain 8 of Table 8 (WT)) of no more than 0.25 µg/mL. It also gave an MIC (E. coli strains [1]; E. coli strain 9 of Table 8 (WT)) of no more than 2 µg/mL, an MIC (E. coli strains [1]; E. coli strain 10 of Table 8 (OSBL, C-chromo)) of no more than 2 µg/mL and an MIC (E. coli strains [1]; E. coli strain 11 of Table 8 (ESBL, C)) of no more than 2 µg/mL. For the same compound, the Imipenem MIC ([2]; Klebsiella oxytoca strain 1 of Table 12 (K1-high)) was no more than 2 µg/mL, the Imipenem MIC ([2]; Klebsiella oxytoca strain 2 of Table 12 (OSBL, K1-high)) was no more than 2 µg/mL and the Imipenem MIC ([2]; Klebsiella oxytoca strain 3 of Table 12 (OSBL, K1-high, Carb)) was greater than 16 µg/mL. The Imipenem MIC ([2]; Klebsiella oxytoca strain 4 of Table 12 (WT)) was no more than 2 µg/mL, the Imipenem MIC ([3]; KLEPENEP strain 5 of Table 16 (WT)) was no more than 2 µg/mL and the “Imipenem MIC” value ([3]; KLEPNEP strain 1 of Table 14 (ESBL, MBL)) was “= 4”. It also gave an Imipenem MIC ([3]; KLEPNEP strain 1 of Table 16 (ESBL, MBL)) of 4 µg/mL, an Imipenem MIC ([3]; KLEPNEP strain 2 of Table 14 (WT)) of no more than 2 µg/mL and an Imipenem MIC ([3]; KLEPNEP strain 2 of Table 16 (MBL)) greater than 16 µg/mL. For the same compound, the Imipenem MIC ([3]; KLEPNEP strain 3 of Table 14 (OSBL, Carbapenemase)) was greater than 16 µg/mL, the “Imipenem MIC” value ([3]; KLEPNEP strain 3 of Table 16 (ESBL, Carbapenemase)) was “= 8” and the Imipenem MIC ([3]; KLEPNEP strain 4 of Table 14 (ESBL, C-plasmid)) was no more than 2 µg/mL. For the same compound, the Imipenem MIC ([3]; KLEPNEP strain 4 of Table 16 (ESBL, C-plasmid)) was no more than 2 µg/mL, the “Imipenem MIC” value ([3]; Klebsiella pneumoniae strain 1 of Table 10 (C-plasmid)) was “<=2 μg/ml” and the “Imipenem MIC” value ([3]; Klebsiella pneumoniae strain 6 of Table 10 (ESBL, C-plasmid)) was “<=2 μg/ml”. The “Imipenem MIC” value ([3]; Klebsiella pneumoniae strain 8 of Table 10 (OSBL, C-plasmid)) was “<=2 μg/ml”, the “Imipenem MIC” value ([3]; Klebsiella pneumoniae strain 11 of Table 10 (OSBL, C-plasmid)) was “<=2 μg/ml” and the “Imipenem MIC” value ([3]; Klebsiella pneumoniae strain 14 of Table 10 (ESBL, C-plasmid)) was “<=2 μg/ml”. The MIC ([3]; Klebsiella pneumoniae strain 2 of Table 10 (ESBL, MBL)) was 4 µg/mL (≈ 13.4 µM), the MIC ([3]; Klebsiella pneumoniae strain 3 of Table 10 (ESBL, C)) was no more than 2 µg/mL and the MIC ([3]; Klebsiella pneumoniae strain 4 of Table 10 (ESBL, Carb (KPC))) was 8 µg/mL (≈ 26.7 µM). For the same compound, the MIC ([3]; Klebsiella pneumoniae strain 7 of Table 10 (WT)) was no more than 2 µg/mL, the MIC ([3]; Klebsiella pneumoniae strain 9 of Table 10 (OSBL, carb)) was greater than 16 µg/mL and the MIC ([3]; Klebsiella pneumoniae strain 10 of Table 10 (WT)) was no more than 2 µg/mL. It also gave an MIC ([3]; Klebsiella pneumoniae strain 12 of Table 10 (MBL)) greater than 16 µg/mL, an MIC ([3]; Klebsiella pneumoniae strain 13 of Table 10 (ESBL, MBL)) of 4 µg/mL (≈ 13.4 µM) and an MIC ([3]; Klebsiella pneumoniae strain 15 of Table 10 (Carb(KPC))) of 8 µg/mL (≈ 26.7 µM). For the same compound, the MIC ([3]; Klebsiella pneumoniae strain 16 of Table 10 (ESBL, Carb(KPC))) was 8 µg/mL (≈ 26.7 µM) and the Imipenem MIC [4] was greater than 16 µg/mL.
In the case of `O=C(Cc1cccs1)N[C@@H]1C(=O)N2C(C(=O)O)=C(/C=C/c3ccc([N+](=O)[O-])cc3[N+](=O)[O-])CS[C@H]12` [NCF, 3-[2,4-dinitrostyryl]-7-(2-thienylacetamido]3-cephem-4-carobxylic acid], the “NCF activity (maximum nitrocefin hydrolysis rate within 10 hrs)” value (from here on “NCF activity”) (E. coli strains [5]; E. coli sample 1, intracellular beta-lactamase +) is reported as 1.9, the “NCF activity” value (E. coli strains [5]; E. coli sample 2, intracellular beta-lactamase +) is reported as 2.1 and the “NCF activity” value (E. coli strains [5]; E. coli sample 3, intracellular beta-lactamase +) is reported as 2.3. The “NCF activity” value (E. coli strains [5]; E. coli sample 4, intracellular beta-lactamase +) was 1.9, the “NCF activity” value (E. coli strains [5]; E. coli sample 5, intracellular beta-lactamase +) was 8.2 and the “NCF activity” value (E. coli strains [5]; E. coli sample 6, intracellular beta-lactamase +) was 7.2. For the same compound, the “NCF activity” value (E. coli strains [5]; E. coli sample 7, intracellular beta-lactamase +) was 6.8, the “NCF activity” value (E. coli strains [5]; E. coli sample 8, intracellular beta-lactamase −) was 1.7 and the “NCF activity” value ([6]; Klebsiella pneumoniae sample 9, intracellular beta-lactamase +) was 1.3. The “NCF activity” value ([6]; Klebsiella pneumoniae sample 10, intracellular beta-lactamase +) was 3.3, the “NCF activity” value ([6]; Klebsiella pneumoniae sample 11, intracellular beta-lactamase +) was 3.9 and the “NCF activity” value ([6]; Klebsiella pneumoniae sample 12, intracellular beta-lactamase +) was 2.6. The “NCF activity” value ([6]; Klebsiella pneumoniae sample 13, intracellular beta-lactamase +) was 6.7, the “NCF activity” value ([6]; Klebsiella pneumoniae sample 14, intracellular beta-lactamase +) was 7.5 and the “NCF activity” value ([6]; Klebsiella pneumoniae sample 15, intracellular beta-lactamase +) was 9.1. The “NCF activity” value ([6]; Klebsiella pneumoniae sample 16, intracellular beta-lactamase −) was 1.2.
With `O=C(O)[C@H]1/C(=C/CO)O[C@@H]2CC(=O)N21` [clavulanic acid] the “inhibition of ESBLs” value (ESBLs) was “inhibits” and the “inhibition of OSBLs” value [7] was “inhibits”.
With `Cc1onc(-c2ccccc2Cl)c1C(=O)N[C@@H]1C(=O)N2[C@@H]1SC(C)(C)[C@@H]2C(=O)O` [cloxacillin] the “inhibition of class A beta-lactamases” value (class A beta-lactamases) was “inhibits” and the “inhibition of class C beta-lactamases” value (class C beta-lactamases) was “inhibits”.
